Results taken from US10597388B2, “Pyridazinone herbicides” (FMC CORPORATION, priority 2014, dated 2020).

Tests used:
Assay type in all cases: in vivo
corn (Zea mays) = assay: Test A greenhouse herbicide test, pre- and postemergence; conditions: Postemergence
How it was run: (§1)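 Seeds in loam–sand blend received a preemergence directed soil spray; plants at 2–10 cm, one- to two-leaf stage, received postemergence sprays. Compounds in a non-phytotoxic solvent with surfactant. After about 10 d in a greenhouse, injury rated visually versus untreated controls on a 0–100 scale (100 = complete control).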

[1] = tested on: foxtail, giant (giant foxtail, Setaria faberii); assay: as above
How it was run: as §1

kochia (Kochia scoparia) = assay: as above
How it was run: as §1

[2] = tested on: ragweed (common ragweed, Ambrosia elatior); assay: as above
How it was run: as §1

[3] = tested on: ryegrass, Italian (Italian ryegrass, Lolium multiflorum); assay: as above
How it was run: as §1

[4] = tested on: wheat (Triticum aestivum); assay: as above; conditions: Postemergence
How it was run: as §1

[5] = tested on: blackgrass (Alopecurus myosuroides); assay: Test A greenhouse herbicide test, postemergence
How it was run: (§2)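 Pot-grown plants (loam soil/sand blend), 2–10 cm tall at the one- to two-leaf stage, received postemergence sprays of formulated test chemical. After about 10 d in the greenhouse, injury was rated visually against untreated controls on a 0 (no effect) to 100 (complete control) scale.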

[6] = tested on: galium (catchweed bedstraw, Galium aparine); assay: Test A greenhouse herbicide test, postemergence
How it was run: as §2

[7] = tested on: galium (catchweed bedstraw, Galium aparine); assay: Test C greenhouse herbicide test, pre- and postemergence
How it was run: (§3)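 Visual ratings on a 0 to 100 scale (0 = no effect, 100 = complete control) versus untreated controls, scored 13–15 d after treatment. Soil-applied preemergence to seeded loam/sand; foliar postemergence to 1- to 4-leaf plants (2–18 cm) in peat-vermiculite mix; compounds formulated in solvent plus surfactant.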

[8] = tested on: ragweed (common ragweed, Ambrosia elatior); assay: as above
How it was run: as §3

[9] = tested on: ryegrass, Italian (Italian ryegrass, Lolium multiflorum); assay: as above
How it was run: as §3

soybean (Glycine max) = assay: as above
How it was run: as §3

[10] = 125 g ai/ha, 0 to 100 scale where 0 is no effect and 100 is complete control
[11] = 500 g ai/ha, visual rating after approx. 10 d, 0 to 100 scale (0 no effect, 100 complete control)
[12] = Postemergence, 125 g ai/ha, 0 to 100 scale where 0 is no effect and 100 is complete control
[13] = Postemergence, 500 g ai/ha, visual rating after approx. 10 d, 0 to 100 scale (0 no effect, 100 complete control)
[14] = Preemergence, 125 g ai/ha, 0 to 100 scale where 0 is no effect and 100 is complete control
[15] = Preemergence, 500 g ai/ha, 0 to 100 scale where 0 is no effect and 100 is complete control
[16] = Postemergence, 31 g ai/ha, scale 0 to 100 (0 no effect, 100 complete control)
[17] = Postemergence, 125 g ai/ha, scale 0 to 100, 0 is no effect, 100 is complete control
[18] = Postemergence, 250 g ai/ha, scale 0 to 100, 0 no effect, 100 complete control, 13 to 15 d
[19] = Preemergence, 31 g ai/ha, scale 0 to 100, 0 is no effect, 100 is complete control
[20] = Preemergence, 62 g ai/ha, scale 0 to 100, 0 is no effect, 100 is complete control
[21] = Preemergence, 125 g ai/ha, scale 0 to 100, 0 is no effect, 100 is complete control
[22] = Preemergence, 250 g ai/ha, scale 0 to 100 (0 no effect, 100 complete control)
[23] = Postemergence, 62 g ai/ha, 0 to 100 scale (0 no effect, 100 complete control)
[24] = postemergence, 125 g ai/ha, scale 0 to 100, 0 no effect, 100 complete control

Compound: Cc1nn(C)c(=O)c(-c2cc(F)cc3ccccc23)c1OS(C)(=O)=O [Compound 115]
- Plant response rating, Corn (corn (Zea mays); [10]): 0
- Plant response rating, Corn (corn (Zea mays); [11]): 20
- Plant response rating, Foxtail, Giant [1, 12]: 20
- Plant response rating, Foxtail, Giant [1, 13]: 90
- Foxtail, Giant plant response rating [1, 14]: 30
- Plant response rating, Foxtail, Giant [1, 15]: 50
- Plant response rating, Kochia (kochia (Kochia scoparia); [12]): 70
- Plant response rating, Kochia (kochia (Kochia scoparia); [13]): 90
- Kochia plant response rating (kochia (Kochia scoparia); [14]): 30
- Plant response rating, Kochia (kochia (Kochia scoparia); [15]): 90
- Plant response rating, Ragweed [2, 12]: 80
- Plant response rating, Ragweed [2, 13]: 100
- Ragweed plant response rating [2, 14]: 40
- Plant response rating, Ragweed [2, 15]: 90
- Plant response rating, Ryegrass, Italian [3, 12]: 100
- Plant response rating, Ryegrass, Italian [3, 13]: 100
- Ryegrass, Italian plant response rating [3, 14]: 100
- Plant response rating, Ryegrass, Italian [3, 15]: 100
- Plant response rating, Wheat [4, 10]: 20
- Plant response rating, Wheat [4, 11]: 30
- Plant response rating, Blackgrass [5, 10]: 20
- Plant response rating, Blackgrass [5, 11]: 70
- Plant response rating, Galium [6, 10]: 80
- Plant response rating, Galium [6, 11]: 100
- Plant response rating, Galium [7, 16]: 85
- Plant response rating, Galium [7, 17]: 95
- Plant response rating, Galium [7, 18]: 95
- Plant response rating, Ragweed [8, 16]: 60
- Plant response rating, Ragweed [8, 17]: 95
- Plant response rating, Ragweed [8, 18]: 98
- Plant response rating, Ryegrass, Italian [9, 16]: 90
- Plant response rating, Ryegrass, Italian [9, 17]: 95
- Plant response rating, Ryegrass, Italian [9, 18]: 95
- Plant response rating, Soybean (soybean (Glycine max); [16]): 10
- Plant response rating, Soybean (soybean (Glycine max); [17]): 20
- Plant response rating, Soybean (soybean (Glycine max); [18]): 65

Compound: Cc1nn(C)c(=O)c(-c2ccc(F)c3ccccc23)c1OC(=O)CC(F)(F)F [Compound 123]
- Plant response rating, Corn (corn (Zea mays); [10]): 0
- Plant response rating, Corn (corn (Zea mays); [11]): 20
- Plant response rating, Foxtail, Giant [1, 12]: 50
- Plant response rating, Foxtail, Giant [1, 13]: 60
- Foxtail, Giant plant response rating [1, 14]: 70
- Plant response rating, Foxtail, Giant [1, 15]: 70
- Plant response rating, Kochia (kochia (Kochia scoparia); [12]): 70
- Plant response rating, Kochia (kochia (Kochia scoparia); [13]): 70
- Kochia plant response rating (kochia (Kochia scoparia); [14]): 50
- Plant response rating, Kochia (kochia (Kochia scoparia); [15]): 100
- Plant response rating, Ragweed [2, 12]: 50
- Plant response rating, Ragweed [2, 13]: 90
- Ragweed plant response rating [2, 14]: 60
- Plant response rating, Ragweed [2, 15]: 70
- Plant response rating, Ryegrass, Italian [3, 12]: 90
- Plant response rating, Ryegrass, Italian [3, 13]: 100
- Ryegrass, Italian plant response rating [3, 14]: 90
- Plant response rating, Ryegrass, Italian [3, 15]: 100
- Plant response rating, Wheat [4, 10]: 0
- Plant response rating, Wheat [4, 11]: 20
- Plant response rating, Blackgrass [5, 10]: 30
- Plant response rating, Blackgrass [5, 11]: 50
- Plant response rating, Galium [6, 10]: 80
- Plant response rating, Galium [6, 11]: 90
- Plant response rating, Galium [7, 16]: 95
- Plant response rating, Galium [7, 17]: 95
- Plant response rating, Galium [7, 18]: 95
- Plant response rating, Ragweed [8, 16]: 75
- Plant response rating, Ragweed [8, 17]: 95
- Plant response rating, Ragweed [8, 18]: 98
- Plant response rating, Ryegrass, Italian [9, 16]: 90
- Plant response rating, Ryegrass, Italian [9, 17]: 90
- Plant response rating, Ryegrass, Italian [9, 18]: 95
- Plant response rating, Soybean (soybean (Glycine max); [16]): 10
- Plant response rating, Soybean (soybean (Glycine max); [17]): 20
- Plant response rating, Soybean (soybean (Glycine max); [18]): 65

Compound: Cc1ccc2ccccc2c1-c1c(O)c(Cl)nn(C)c1=O [Compound 125]
- Plant response rating, Corn (corn (Zea mays); [10]): 20
- Plant response rating, Corn (corn (Zea mays); [11]): 30
- Plant response rating, Foxtail, Giant [1, 12]: 90
- Plant response rating, Foxtail, Giant [1, 13]: 90
- Foxtail, Giant plant response rating [1, 14]: 90
- Plant response rating, Foxtail, Giant [1, 15]: 100
- Plant response rating, Kochia (kochia (Kochia scoparia); [12]): 100
- Plant response rating, Kochia (kochia (Kochia scoparia); [13]): 100
- Kochia plant response rating (kochia (Kochia scoparia); [14]): 60
- Plant response rating, Kochia (kochia (Kochia scoparia); [15]): 90
- Plant response rating, Ragweed [2, 12]: 90
- Plant response rating, Ragweed [2, 13]: 100
- Ragweed plant response rating [2, 14]: 80
- Plant response rating, Ragweed [2, 15]: 90
- Plant response rating, Ryegrass, Italian [3, 12]: 100
- Plant response rating, Ryegrass, Italian [3, 13]: 100
- Ryegrass, Italian plant response rating [3, 14]: 100
- Plant response rating, Ryegrass, Italian [3, 15]: 100
- Plant response rating, Wheat [4, 10]: 50
- Plant response rating, Wheat [4, 11]: 80
- Plant response rating, Blackgrass [5, 10]: 70
- Plant response rating, Blackgrass [5, 11]: 80
- Plant response rating, Galium [6, 10]: 90
- Plant response rating, Galium [6, 11]: 90
- Plant response rating, Galium [7, 16]: 95
- Plant response rating, Galium [7, 17]: 95
- Plant response rating, Galium [7, 18]: 95
- Plant response rating, Galium [7, 19]: 100
- Plant response rating, Galium [7, 20]: 100
- Plant response rating, Galium [7, 21]: 100
- Galium plant response rating [7, 22]: 100
- Plant response rating, Ragweed [8, 16]: 95
- Plant response rating, Ragweed [8, 17]: 98
- Plant response rating, Ragweed [8, 18]: 98
- Plant response rating, Ragweed [8, 19]: 95
- Plant response rating, Ragweed [8, 20]: 100
- Plant response rating, Ragweed [8, 21]: 98
- Ragweed plant response rating [8, 22]: 100
- Plant response rating, Ryegrass, Italian [9, 16]: 85
- Plant response rating, Ryegrass, Italian [9, 17]: 95
- Plant response rating, Ryegrass, Italian [9, 18]: 95
- Plant response rating, Ryegrass, Italian [9, 19]: 85
- Plant response rating, Ryegrass, Italian [9, 20]: 95
- Plant response rating, Ryegrass, Italian [9, 21]: 95
- Ryegrass, Italian plant response rating [9, 22]: 95
- Plant response rating, Soybean (soybean (Glycine max); [16]): 0
- Plant response rating, Soybean (soybean (Glycine max); [17]): 10
- Plant response rating, Soybean (soybean (Glycine max); [18]): 10
- Plant response rating, Soybean (soybean (Glycine max); [19]): 0
- Plant response rating, Soybean (soybean (Glycine max); [20]): 5
- Plant response rating, Soybean (soybean (Glycine max); [21]): 30
- Soybean plant response rating (soybean (Glycine max); [22]): 35

Compound: Cc1nn(C)c(=O)c(-c2cccc3ccc(C#N)cc23)c1O [Compound 127]
- Plant response rating, Corn (corn (Zea mays); [10]): 0
- Plant response rating, Corn (corn (Zea mays); [11]): 10
- Plant response rating, Foxtail, Giant [1, 12]: 10
- Plant response rating, Foxtail, Giant [1, 13]: 60
- Foxtail, Giant plant response rating [1, 14]: 50
- Plant response rating, Foxtail, Giant [1, 15]: 60
- Plant response rating, Kochia (kochia (Kochia scoparia); [12]): 70
- Plant response rating, Kochia (kochia (Kochia scoparia); [13]): 80
- Kochia plant response rating (kochia (Kochia scoparia); [14]): 0
- Plant response rating, Kochia (kochia (Kochia scoparia); [15]): 90
- Plant response rating, Ragweed [2, 12]: 60
- Plant response rating, Ragweed [2, 13]: 80
- Ragweed plant response rating [2, 14]: 30
- Plant response rating, Ragweed [2, 15]: 70
- Plant response rating, Ryegrass, Italian [3, 12]: 80
- Plant response rating, Ryegrass, Italian [3, 13]: 90
- Ryegrass, Italian plant response rating [3, 14]: 60
- Plant response rating, Ryegrass, Italian [3, 15]: 90
- Plant response rating, Wheat [4, 10]: 0
- Plant response rating, Wheat [4, 11]: 20
- Plant response rating, Blackgrass [5, 10]: 20
- Plant response rating, Blackgrass [5, 11]: 50
- Plant response rating, Galium [6, 10]: 90
- Plant response rating, Galium [6, 11]: 100
- Plant response rating, Galium [7, 16]: 75
- Galium plant response rating [7, 23]: 80
- Plant response rating, Galium [7, 18]: 90
- Galium plant response rating [7, 24]: 85
- Plant response rating, Ragweed [8, 16]: 10
- Ragweed plant response rating [8, 23]: 55
- Plant response rating, Ragweed [8, 18]: 90
- Ragweed plant response rating [8, 24]: 60
- Plant response rating, Ryegrass, Italian [9, 16]: 50
- Ryegrass, Italian plant response rating [9, 23]: 75
- Plant response rating, Ryegrass, Italian [9, 18]: 90
- Ryegrass, Italian plant response rating [9, 24]: 80
- Plant response rating, Soybean (soybean (Glycine max); [16]): 0
- Soybean plant response rating (soybean (Glycine max); [23]): 10
- Plant response rating, Soybean (soybean (Glycine max); [18]): 35
- Soybean plant response rating (soybean (Glycine max); [24]): 30
